Measured values: patent US7989632B2, “Crystalline forms of solvated ilaprazole” (Il Yang Pharmaceutical Company, Ltd., priority 2006, dated 2011)

Legend:
[1] = Dynamic Vapor Sorption/Desorption (DVS) isotherm; format: physicochemical; conditions: for DVS weight loss at 5% RH: samples not dried prior to analysis; for DVS weight loss from 95 to 5% RH: desorption
Procedure: Dynamic Vapor Sorption/Desorption (DVS): Data were collected on a VTI SGA-100 moisture balance system. For sorption isotherms, a sorption range of 5 to 95% relative humidity (RH) and a desorption range of 95 to 5% RH in 10% RH increments were used for analysis. The samples were not dried prior to analysis. Equilibrium criteria used for analysis were less than 0.0100% weight change in 5 minutes with a maximum equilibration time of 3 hours if the weight criterion was not met. Data were not corrected for the initial moisture content of the samples.

gastric acid = assay: Phase 1 clinical studies conducted with ilaprazole; format: in vivo, humans; conditions: Phase 1, at the doses studied
[2] = system: gastric-acid related disorders; acid-related gastric and duodenal ulcers; assay: Phase 2 clinical studies conducted with ilaprazole; format: in vivo, humans; conditions: at the doses studied

C1COCCO1.COc1ccnc(C[S+]([O-])c2nc3cc(-n4cccc4)ccc3[nH]2)c1C.COc1ccnc(C[S+]([O-])c2nc3cc(-n4cccc4)ccc3[nH]2)c1C (racemic) [Form C, crystalline 1,4-dioxane/racemic ilaprazole hemi-solvate]
DVS weight loss at 5% RH [1]: ~1.2%
DVS weight loss from 95 to 5% RH [1]: ~4.1%
DVS weight loss from 5 to 95% RH ([1]; sorption, 5 to 95% RH): ~1.1%

C1CCOC1.COc1ccnc(C[S+]([O-])c2nc3cc(-n4cccc4)ccc3[nH]2)c1C.COc1ccnc(C[S+]([O-])c2nc3cc(-n4cccc4)ccc3[nH]2)c1C (racemic) [Form D, crystalline THF/racemic ilaprazole hemisolvate]
DVS weight loss at 5% RH [1]: ~0.6%
DVS weight loss from 95 to 5% RH [1]: ~1.2%
DVS weight gain from 5 to 95% RH ([1]; sorption, 5 to 95% RH): ~0.6%

COc1ccnc(C[S+]([O-])c2nc3cc(-n4cccc4)ccc3[nH]2)c1C (stereo not drawn) [ilaprazole, 2[[(4-methoxy-3-methyl-2-pyridinyl)-methyl]sulfinyl]-5-(1H-pyrrol-1-yl) 1H-Benzimidazole]
suppression of gastric acid (gastric acid): suppression of gastric acid occurs over a 24-hour period
healing of ulcers ([2]; Phase 2, acid-related gastric and duodenal ulcers): promoted rapid healing
symptomatic relief ([2]; Phase 2, patients with gastric-acid related disorders): provided symptomatic relief
